Laboratory results: patent US9617310B2 (priority 2013, dated 2017)
pEC50: −log10 of the molar value.

How the values were obtained:
Assay type in all cases: cell-based
[1] = test system: genotype 4a stable HCV replicon (ED43) in Huh-7-derived cells; assay: Stable subgenomic HCV replicon, genotype 4a, Renilla luciferase; details: Hepatitis C virus, 72 h, read-out: EC50 4A RLUC
Protocol: (§1) Antiviral potency (EC50) was determined in both stable subgenomic HCV replicon cell lines and transient-transfected HCV replicon cells. The term half maximal effective concentration (EC50) refers to the concentration of a drug which induces a response halfway between the baseline and maximum after the exposure time specified below.
(§2) Stable subgenomic HCV replicons for genotype 1a, 1b, 2a, 3a, and 4a were established in Huh-7-derived cells as described by Lohmann et al (Lohmann V, Korner F, Koch J, et al Replication of subgenomic hepatitis C virus RNAs in a hepatoma cell line. Science 1999; 285:119-3). Each stable cell line contains a bicistronic HCV replicon that encodes a humanized Renilla luciferase (hRLuc) reporter gene fused to a selectable neomycin-resistance gene, followed by an EMCV IRES and the NS3-NS5B coding region of HCV. […] Luciferase activity was measured as a marker for intracellular HCV replication levels.
(§3) The genotype 1a stable replicon was derived from the H77 HCV strain and contained adaptive mutations P1496L and S2204I. The genotype 1b stable replicon was derived from the Con1 HCV strain and contained adaptive mutations E1202G, T1280I, and K1846T. […] The genotype 3a stable replicon was derived from the S52 HCV strain and contained adaptive mutations P1121 L, A1198T and S2210I (equivalent to S2204I in genotype 1). The genotype 4a stable replicon was derived from the ED43 HCV strain and contained adaptive mutations Q1691R and S2204I. All replicon cell lines were propagated in Huh-7-derived cells and maintained in Dulbecco's modified Eagle's Medium (DMEM) supplemented with 10% fetal bovine serum (FBS) and 0.5 mg/ml G418.
(§4) To perform EC50 assays, cells from each HCV replicon were dispensed into 384-well plates. Compounds were dissolved in DMSO at a concentration of 10 mM and diluted in DMSO using an automated pipetting instrument. Three-fold serially diluted compounds were directly added to the cells using an automated instrument. DMSO was used as a negative (solvent; no inhibition) control, and a combination of three HCV inhibitors including a protease inhibitor; an NS5A inhibitor and a nucleoside inhibitor was used at concentrations >100×EC50 as a positive control (100% inhibition). Seventy-two hours later, cells were lysed and Renilla luciferase activity were quantified as recommended by the manufacturer (Promega-Madison, Wis.). Non-linear regression was performed to calculate […], values.

[2] = test system: genotype 1a stable HCV replicon (H77) in Huh-7-derived cells; assay: Stable subgenomic HCV replicon, genotype 1a, Renilla luciferase; details: Hepatitis C virus, stable replicon genotype 1a, 72 h, read-out: EC50 1A RLUC
Protocol: as §1, §2, §3, §4

[3] = test system: NS3/4a protease inhibitor resistant variant D168A in genotype 1b transient HCV replicon; assay: Transient-transfected HCV replicon, genotype 1b D168A; details: Hepatitis C virus, 72 h, read-out: EC50 1B D168A
[4] = test system: genotype 2a stable HCV replicon (JFH-1) in Huh-7-derived cells; assay: Stable subgenomic HCV replicon, genotype 2a, Renilla luciferase; details: Hepatitis C virus, stable replicon genotype 2a, 72 h, read-out: EC50 2A RLUC
Protocol: as §1, §2, §3, §4

[5] = test system: NS3/4a protease inhibitor resistant variant R155K in genotype 1a transient HCV replicon; assay: Transient-transfected HCV replicon, genotype 1a R155K; details: Hepatitis C virus, 72 h, read-out: EC50 1A R155K
[6] = test system: genotype 1a (H77) wild-type transient HCV replicon in Huh-7-derived cells; assay: Transient-transfected HCV replicon, genotype 1a wild type; details: Hepatitis C virus; transient-transfected replicon genotype 1a wild type, 72 h; read-out: EC50 1A WT
[7] = test system: genotype 1b wild-type transient HCV replicon in Huh-7-derived cells; assay: Transient-transfected HCV replicon, genotype 1b wild type; details: Hepatitis C virus; transient-transfected replicon genotype 1b wild type, 72 h; read-out: EC50 1B WT

Structure (SMILES) | pEC50 [1] | pEC50 [2] | pEC50 [3] | pEC50 [4] | pEC50 [5] | pEC50 [6] | pEC50 [7]
COc1ccc2nc3c(nc2c1)O[C@@H]1C[C@@H](C(=O)N[C@]2(C(=O)NS(=O)(=O)C4CC4)C[C@H]2C(F)F)N(C1)C(=O)[C@H](C(C)(C)C)NC(=O)O[C@@H]1C[C@@H]2C[C@@H]2[C@H]1CCCCC3(F)F (racemic) [Example 9, (1aS,2aR,6S,9S,11R,23aR,23bS)-6-tert-butyl-N-[(1R,2R)-1-[(cyclopropylsulfonyl)carbamoyl]-2-(difluoromethyl)cyclopropyl]-19,19-difluoro-15-methoxy-4,7-dioxo-1a,2,2a,4,5,6,7,10,11,19,20,21,22,23,23a,23b-hexadecahydro-1H,9H-8,11-methanocyclopropa[4′,5′]cyclopenta[1′,2′:18,19][1,10,3,6]dioxadiazacyclononadecino[11,12-b]quinoxaline-9-carboxamide] | 8.85 | 8.77 | 8.96 | 8.64 | 8.96 | 8.89 | 9.15
CC(C)(C)[C@@H]1NC(=O)O[C@@H]2C[C@@H]3C[C@@H]3[C@H]2CCCCC(F)(F)c2nc3cc(F)c(F)cc3nc2O[C@@H]2C[C@@H](C(=O)N[C@]3(C(=O)NS(=O)(=O)C4CC4)C[C@H]3C(F)F)N(C2)C1=O (racemic) [Example 15, (1aS,2aR,6S,9S,11R,23aR,23bS)-6-tert-butyl-N-[(1R,2R)-1-[(cyclopropylsulfonyl)carbamoyl]-2-(difluoromethyl)cyclopropyl]-15,16,19,19-tetrafluoro-4,7-dioxo-1a,2,2a,4,5,6,7,10,11,19,20,21,22,23,23a,23b-hexadecahydro-1H,9H-8,11-methanocyclopropa[4′,5′]cyclopenta[1′,2′:18,19][1,10,3,6]dioxadiazacyclononadecino[11,12-b]quinoxaline-9-carboxamide] | 8.59 | 8.46 | 8.33 | 8.48 | 8.92 | 8.80 | 8.89
COc1ccc2nc3c(nc2c1)O[C@@H]1C[C@@H](C(=O)N[C@]2(C(=O)NS(=O)(=O)C4CC4)C[C@H]2C(F)F)N(C1)C(=O)[C@H](C(C)(C)C)NC(=O)O[C@@H]1C[C@@H]2C[C@@H]2[C@H]1CCCCC3 [Example 1, (1aS,2aR,6S,9S,11R,23aR,23bS)-6-tert-butyl-N-[(1R,2R)-1-[(cyclopropylsulfonyl)carbamoyl]-2-(difluoromethyl)cyclopropyl]-15-methoxy-4,7-dioxo-1a,2,2a,4,5,6,7,10,11,19,20,21,22,23,23a,23b-hexadecahydro-1H,9H-8,11-methanocyclopropa[4′,5′]cyclopenta[1′,2′:18,19][1,10,3,6]dioxadiazacyclononadecino[11,12-b]quinoxaline-9-carboxamide] | 9.00 | 8.96 | 8.34 | 8.60 | 8.82 | 9.00 | 9.21
COc1ccc2nc3c(nc2c1)O[C@@H]1C[C@@H](C(=O)N[C@]2(C(=O)NS(=O)(=O)C4(C)CC4)C[C@H]2C(F)F)N(C1)C(=O)[C@H](C(C)(C)C)NC(=O)O[C@@H]1C[C@@H]2C[C@@H]2[C@H]1CCCCC3 [Example 2, (1aS,2aR,6S,9S,11R,23aR,23bS)-6-tert-butyl-N-[(1R,2R)-2-(difluoromethyl)-1-{[(1-methylcyclopropyl)sulfonyl]carbamoyl}cyclopropyl]-15-methoxy-4,7-dioxo-1a,2,2a,4,5,6,7,10,11,19,20,21,22,23,23a,23b-hexadecahydro-1H,9H-8,11-methanocyclopropa[4′,5′]cyclopenta[1′,2′18,19][1,10,3,6]dioxadiazacyclononadecino[11,12-b]quinoxaline-9-carboxamide] | 8.92 | 8.96 | 8.49 | 8.74 | 8.85 | 8.96 | 9.13
COc1ccc2nc3c(nc2c1)O[C@@H]1C[C@@H](C(=O)N[C@]2(C(=O)NS(=O)(=O)C4CC4)C[C@H]2CC(F)F)N(C1)C(=O)[C@H](C(C)(C)C)NC(=O)O[C@@H]1C[C@@H]2C[C@@H]2[C@H]1CCCCC3 [Example 3, (1aS,2aR,6S,9S,11R,23aR,23bS)-6-tert-butyl-N-[(1R,2S)-1-[(cyclopropylsulfonyl)carbamoyl]-2-(2,2-difluoroethyl)cyclopropyl]-15-methoxy-4,7-dioxo-1a,2,2a,4,5,6,7,10,11,19,20,21,22,23,23a,23b-hexadecahydro-1H,9H-8,11-methanocyclopropa[4′,5′]cyclopenta[1′,2′:18,19][1,10,3,6]dioxadiazacyclononadecino[11,12-b]quinoxaline-9-carboxamide] | 8.47 | 8.42 | 7.30 | 7.82 | 7.96 | 8.29 | 8.54
COc1ccc2nc3c(nc2c1)O[C@@H]1C[C@@H](C(=O)N[C@]2(C(=O)NS(=O)(=O)C4CC4)C[C@H]2C(F)F)N(C1)C(=O)[C@H](C(C)(C)C)NC(=O)O[C@@H]1[C@H]2CC[C@H](C2)[C@H]1CCCCC3 [Example 4, (1R,4S,4aR,8S,11S,13R,25aR)-8-tert-butyl-N-[(1R,2R)-1-[(cyclopropylsulfonyl)carbamoyl]-2-(difluoromethyl)cyclopropyl]-17-methoxy-6,9-dioxo-2,3,4,4a,6,7,8,9,12,13,21,22,23,24,25,25a-hexadecahydro-1H,11H-1, 4:10,13-dimethanoquinoxalino[2,3-k][1,10,3,6]benzodioxadiazacyclononadecine-11-carboxamide] | 8.51 | 8.37 | 6.95 | 7.74 | 7.57 | 8.59 | 8.92
COc1ccc2nc3c(nc2c1)O[C@@H]1C[C@@H](C(=O)N[C@]2(C(=O)NS(=O)(=O)C4(C)CC4)C[C@H]2C(F)F)N(C1)C(=O)[C@H](C(C)(C)C)NC(=O)O[C@@H]1[C@H]2CC[C@H](C2)[C@H]1CCCCC3 [Example 5, (1R,4S,4aR,8S,11S,13R,25aR)-8-tert-butyl-N-[(1R,2R)-2-(difluoromethyl)-1-{[(1-methylcyclopropyl)sulfonyl]carbamoyl}cyclopropyl]-17-methoxy-6,9-dioxo-2,3,4,4a,6,7,8,9,12,13,21,22,23,24,25,25a-hexadecahydro-1H,11H-1, 4:10,13-dimethanoquinoxalino[2,3-k][1,10,3,6]benzodioxadiazacyclononadecine-11-carboxamide] | 8.41 | 8.30 | 6.79 | 7.85 | 7.46 | 8.38 | 8.68
COc1ccc2nc3c(nc2c1)O[C@@H]1C[C@@H](C(=O)N[C@]2(C(=O)NS(=O)(=O)C4CC4)C[C@H]2C(F)F)N(C1)C(=O)[C@H](C(C)(C)C)NC(=O)O[C@H]1[C@H](CCCCC3)C[C@H]2C[C@H]21 [Example 7, (1aR,1bS,5S,8S,10R,22aR,23aR)-5-tert-butyl-N-[(1R,2R)-1-[(cyclopropylsulfonyl)carbamoyl]-2-(difluoromethyl)cyclopropyl]-14-methoxy-3,6-dioxo-1a,1b,3,4,5,6,9,10,18,19,20,21,22,22a,23,23a-hexadecahydro-1H,8H-7,10-methanocyclopropa[3′,40]cyclopenta[1′,2′:18,19][1,10,3,6]dioxadiazacyclononadecino[11,12-b]quinoxaline-8-carboxamide] | 7.26 | 7.02 | 5.97 | 6.70 | 6.74 | 7.14 | 7.28
